This is an account of results in EP4458916A1, “PHOTOCATALYTICALLY ACTIVE COATING COMPOSITION, METHOD FOR THE PRODUCTION THEREOF AND USE THEREOF” (priority 2023, dated 2024).

The test system of assay [1] is Bakterien. Nature of the assay: Thermal ageing: bacteria test (ISO 22196) after accelerated ageing ASTM F1980-16 at 60°C for 4 weeks. It counts as cell-based. The following applies: 4 h, beschleunigte Alterung 60°C, Rezeptur 2 (Borsäure) on Melamin, 2 mM. The text has this: (§1) Die Bestimmung der antimikrobiellen Aktivität erfolgte nach einer modifizierten Version der ISO 22196:2011-08 ("Messung von antibakterieller Aktivität auf Kunststoff- und anderen porenfreien Oberflächen", Ausgabedatum: 2011-08).
(§2) Bei der Testdurchführung wurde ein dünner Flüssigkeitsfilm, in dem die Bakterien enthalten sind (1,25 x 10^4 /cm2), direkt auf die Probekörper (2,5 cm x 2,5 cm) aufgebracht. Direkt nach Beimpfung wurden von der Nullprobe die Bakterien von den Probekörperoberflächen mittels Ultraschall und Vortexen abgelöst und die Keimzahl (KBE (engl. CFU), Kolonie-bildende Einheit) bestimmt (t0-Wert). Ein weiterer Satz Nullproben und antimikrobiell ausgestatteter Proben wurden mit Bakterien im Flüssigkeitsfilm bei Raumtemperatur inkubiert. Nach 4 h wurden überlebende Bakterien von den Probekörperoberflächen mittels Ultraschall und Vortexen abgelöst und die Keimzahl bestimmt (t4-Wert).
(§3) Im Unterschied zu der in der ISO 22196:2011-08 beschriebenen Methode wurde das Inokulum nicht mit einer Folie abgedeckt und die Inkubationszeit von 24 auf 4 Stunden reduziert. Weiterhin wurden die Platten der Proben 3 und 4 mit Licht mit einer Intensität von 300 µW/cm2 belichtet.
Zur Beurteilung der Schicht auf Alterungsprozesse, wurde eine beschleunigte Alterung nach ASTM F1980-16 bei 60°C für 4 Wochen durchgeführt.
Der Bakterientest wurde in Anlehnung an ISO 22196 nach oben beschriebener Methode durchgeführt. Die Ergebnisse sind in der Tabelle 62 zusammengefasst. Tabelle 62: Mikrobiologische Wirksamkeit (log10 Reduktion) bei beschleunigter Alterung (60°C).

For assay [2], the system named is Bakterien. In words: Durability: bacteria test (ISO 22196) after immersion in Incidin Plus (10% in water) or isopropanol (70% in water). It counts as cell-based. The following applies: 4 h, Rezeptur 2 (Borsäure) on Melamin, 2 mM.
From the text: as §1, §2, §3
Um die Haltbarkeit der Beschichtung bzw. das Auswaschen des Farbstoffs gegen gängige Reinigungs- und Desinfektionsmitteln, wurden damit Immersionstests in Incidin Plus (Ecolab GmbH, 10% in Wasser, Farbstoff S-25a) und Isopropanol (70% in Wasser) durchgeführt.
Der Bakterientest wurde in Anlehnung an ISO 22196 nach oben beschriebener Methode durchgeführt. Die Ergebnisse sind in den Tabellen 59 und 60 zusammengefasst. Tabelle 59: Mikrobiologische Wirksamkeit (Iog10 Reduktion) nach X h Immersion in Incidin Plus (10% in Wasser).

In the case of `CC(C)(O)c1cc[n+](CC2=Cc3cccc4cccc(c34)C2=O)cc1` [S-25a], the log reduction at 2000 µM in the assay with Bakterien [1] (0 Wo, dark, read-out: Log10 Reduktion nach 0 Wo, Dunkelkontrolle) came out at 0.1; in the assay on Bakterien [1] (0 Wo, read-out: Log10 Reduktion nach 0 Wo, Probe) it was 3.9; with Bakterien [1] (1 Wo, dark, read-out: Log10 Reduktion nach 1 Wo, Dunkelkontrolle) it was 0; with Bakterien [1] (1 Wo, read-out: Log10 Reduktion nach 1 Wo, Probe) it was 3.8; in the assay on Bakterien [1] (2 Wo, dark, read-out: Log10 Reduktion nach 2 Wo, Dunkelkontrolle) it was 0; in the assay on Bakterien [1] (2 Wo, read-out: Log10 Reduktion nach 2 Wo, Probe) it was 3.4. Besides, the log reduction at 2000 µM with Bakterien [1] (3 Wo, dark, read-out: Log10 Reduktion nach 3 Wo, Dunkelkontrolle) worked out at 0.3; in the assay on Bakterien [1] (3 Wo, read-out: Log10 Reduktion nach 3 Wo, Probe) it was 3.3; with Bakterien [1] (4 Wo, dark, read-out: Log10 Reduktion nach 4 Wo, Dunkelkontrolle) it was 0.4; with Bakterien [1] (4 Wo, read-out: Log10 Reduktion nach 4 Wo, Probe) it was 2.8; in the assay with Bakterien [2] (Immersion in Incidin Plus (10% in Wasser) 0 h, read-out: Log10 Reduktion nach 0 h, Probe), 3.7; with Bakterien [2] (Immersion in Incidin Plus (10% in Wasser) 1 h, dark, read-out: Log10 Reduktion nach 1 h, Dunkelkontrolle), 0.8. Further, the log reduction at 2000 µM in the assay with Bakterien [2] (Immersion in Incidin Plus (10% in Wasser) 1 h, read-out: Log10 Reduktion nach 1 h, Probe) was 2.6; in the assay with Bakterien [2] (Immersion in Incidin Plus (10% in Wasser) 2 h, read-out: Log10 Reduktion nach 2 h, Probe), 2.4; in the assay on Bakterien [2] (Immersion in Incidin Plus (10% in Wasser) 3 h, read-out: Log10 Reduktion nach 3 h, Probe), 1.4.
